Laboratory results: US20110077237A1, “KINASE INHIBITORS” (VERTEX PHARMACEUTICALS INCORPORATED, priority 2007, published 2011)
pKi: −log10 of the molar value.

These compounds were tested against PKC delta kinase (Homo sapiens, UniProt Q05655) (assay: PKC Delta coupled-enzyme kinase assay). Settings: not given.
Format: biochemical
Description: An assay buffer solution was prepared which consisted of 100 mM HEPES (pH 7.5), 10 mM MgCl2, 25 mM NaCl, 0.1 mM EDTA and 0.01% Brij. […] To 16 μL of this enzyme buffer, in a 384 well plate, was added 1 μL of VRT stock solution in DMSO. The mixture was allowed to equilibrate for 10 mins at 30° C. […] Ki values were calculated from initial rate data by non-linear regression using the Prism software package (Prism 4.0a, Graphpad Software, San Diego, Calif.).

Chain of PKC delta kinase (Q05655 whole entry): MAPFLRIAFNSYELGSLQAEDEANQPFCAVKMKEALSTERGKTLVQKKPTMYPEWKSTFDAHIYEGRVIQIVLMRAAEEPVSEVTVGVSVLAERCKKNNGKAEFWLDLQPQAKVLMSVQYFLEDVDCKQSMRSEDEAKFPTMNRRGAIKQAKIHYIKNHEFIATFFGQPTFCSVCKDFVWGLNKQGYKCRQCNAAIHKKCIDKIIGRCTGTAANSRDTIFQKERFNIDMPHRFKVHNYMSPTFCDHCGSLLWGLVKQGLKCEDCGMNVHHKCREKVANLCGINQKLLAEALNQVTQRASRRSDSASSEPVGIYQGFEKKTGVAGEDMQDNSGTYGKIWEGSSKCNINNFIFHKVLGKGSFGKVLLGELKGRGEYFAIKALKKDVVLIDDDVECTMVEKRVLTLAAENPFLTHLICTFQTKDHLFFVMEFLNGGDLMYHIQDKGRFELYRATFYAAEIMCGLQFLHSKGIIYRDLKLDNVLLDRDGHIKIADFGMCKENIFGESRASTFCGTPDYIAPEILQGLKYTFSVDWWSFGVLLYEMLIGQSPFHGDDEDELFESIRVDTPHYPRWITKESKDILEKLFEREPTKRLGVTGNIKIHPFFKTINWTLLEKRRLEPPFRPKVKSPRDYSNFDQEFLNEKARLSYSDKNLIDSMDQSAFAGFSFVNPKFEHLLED

| pKi | Structure (SMILES) |
| --- | --- |
| 6.30 to 7.30 | CC(C)(C)[C@H]1CN(c2cccc(C(=O)c3cccnc3N)n2)CCN1 [compound 225] |
| 6.30 to 7.30 | CC1(C)CN(c2cccc(C(=O)c3cccnc3N)n2)CCN1 [compound 226] |
| 6.30 to 7.30 | Nc1ncccc1C(=O)c1cccc(N2CCC(N)CC2)n1 [compound 86] |

Same assay, conditions: 46 nM PKC delta, 150 μM ATP, 30° C.; read-out: Ki PKC delta

| pKi | Structure (SMILES) |
| --- | --- |
| 6.30 to 7.30 | Nc1ncccc1C(=O)c1nc(N2CCC(N)CC2)ccc1Cl [compound 322] |
| 6.30 to 7.30 | Nc1ncc(-c2cccnc2)cc1C(=O)c1cccc(N2CCCNCC2)n1 [compound 58] |
| 6.30 to 7.30 | CN1CCCN(c2csc(C(=O)c3cc(Br)cnc3N)n2)CC1 [compound 163] |
| 6.30 to 7.30 | Cc1ccc(N2CCNC(c3ccccc3)C2)nc1C(=O)c1cccnc1N (centres unmarked) [compound 252] |
| 6.30 to 7.30 | Nc1ncccc1C(=O)c1nc(N2CCCNCC2)cs1 [compound 102] |
| 6.30 to 7.30 | Cc1cccc(-c2cnc(N)c(C(=O)c3cccc(N4CCCNCC4)n3)c2)c1 [compound 182] |
| 6.30 to 7.30 | Nc1ncccc1C(=O)c1cccc(N2CCNC(c3ccc(O)cc3)C2)n1 (centres unmarked) [compound 312] |
| 6.30 to 7.30 | Nc1ncc(-c2c[nH]c3ccccc23)cc1C(=O)c1cccc(N2CCNC(c3ccccc3)C2)n1 (centres unmarked) [compound 268] |
| 6.30 to 7.30 | Nc1ncc(Br)cc1C(=O)c1nc(N2CCNC(c3ccccc3)C2)ccc1Cl (centres unmarked) [compound 331] |
| 6.30 to 7.30 | Nc1ccc(-c2cnc(N)c(C(=O)c3cccc(N4CCCNCC4)n3)c2)cc1 [compound 170] |
| 6.30 to 7.30 | Nc1ncccc1C(=O)c1cccc(N2CCCN(C(=O)Cc3ccccc3)CC2)n1 [compound 33] |
| 6.30 to 7.30 | CC1CN(c2cccc(C(=O)c3cccnc3N)n2)C(C)CN1 (centres unmarked) [compound 222] |
| 6.30 to 7.30 | Nc1ncc(-c2cc[nH]c2)cc1C(=O)c1cccc(N2CCNC(c3ccccc3)C2)n1 (centres unmarked) [compound 289] |
| 6.30 to 7.30 | CC(C)C[C@H](N)CNc1ccc(C(F)(F)F)c(C(=O)c2cccnc2N)n1 [compound 396] |
| 6.30 to 7.30 | COc1ccccc1-c1cnc(N)c(C(=O)c2cccc(N3CCNC(c4ccccc4)C3)n2)c1 (centres unmarked) [compound 284] |
| 6.30 to 7.30 | CN1CCCN(c2cncc(C(=O)c3cc(Br)cnc3N)n2)CC1 [compound 156] |
| 6.30 to 7.30 | Nc1ncccc1C(=O)c1cccc(N2CCNC(c3ccc(Cl)c(Cl)c3)C2)n1 (centres unmarked) [compound 313] |
| < 5.55 | Cc1cc(C)c(CC2CN(c3cccc(C(=O)c4cccnc4N)n3)CCN2)c(C)c1 (centres unmarked) [compound 244] |
| 6.30 to 7.30 | Nc1ncc(-c2csc3ccccc23)cc1C(=O)c1cccc(N2CCCNCC2)n1 [compound 200] |
| 6.30 to 7.30 | Nc1ncccc1C(=O)c1cccc(N2CCNC(c3cccc(C(F)(F)F)c3)C2)n1 (centres unmarked) [compound 314] |
| 6.30 to 7.30 | Nc1ncc(-c2ccc(CO)cc2)cc1C(=O)c1cccc(N2CCNC(c3ccccc3)C2)n1 (centres unmarked) [compound 282] |
| 6.30 to 7.30 | Nc1ncccc1C(=O)c1nc(N2CCNC(c3ccccc3)C2)ccc1C(F)F (centres unmarked) [compound 404] |
| 6.30 to 7.30 | Nc1ncc(Br)cc1C(=O)c1cccc(N2CCNCC2)n1 [compound 195] |
| 6.30 to 7.30 | C=Cc1cnc(N)c(C(=O)c2cncc(N3CCCNCC3)n2)c1 [compound 165] |
| 6.30 to 7.30 | N#Cc1ccccc1-c1cnc(N)c(C(=O)c2cccc(N3CCNC(c4ccccc4)C3)n2)c1 (centres unmarked) [compound 269] |
| 5.55 to 6.30 | Cc1cnc(N)c(C(=O)c2cccc(N3CCCNCC3)n2)c1 [compound 155, (6-(1,4-diazepan-1-yl)pyridin-2-yl)(2-amino-5-methylpyridin-3-yl)methanone bis(2,2,2-trifluoroacetate)] |

| pKi | Structure (SMILES) |
| --- | --- |
| 5.55 to 6.30 | CCc1cnc(N)c(C(=O)c2cccc(N3CCCN(C)CC3)n2)c1 [compound 153] |
| 5.55 to 6.30 | Nc1ncc(-c2ccsc2)cc1C(=O)c1cccc(N2CCNC(c3ccccc3)C2)n1 (centres unmarked) [compound 264] |
| 5.55 to 6.30 | Cc1ccccc1-c1cnc(N)c(C(=O)c2cccc(N3CCCNCC3)n2)c1 [compound 57] |
| 5.55 to 6.30 | Nc1ncc(-c2csc3ccccc23)cc1C(=O)c1cccc(N2CCNC(c3ccccc3)C2)n1 (centres unmarked) [compound 266] |
| 6.30 to 7.30 | C[C@H]1CNCCN1c1cccc(C(=O)c2cccnc2N)n1 [compound 228] |
| 6.30 to 7.30 | CC(C)C[C@H](N)COc1ccc(C(F)(F)F)c(C(=O)c2cccnc2N)n1 [compound 406] |
| 6.30 to 7.30 | COc1cccc(C2CN(c3ccc(C(F)(F)F)c(C(=O)c4cccnc4N)n3)CCN2)c1 (centres unmarked) [compound 397] |
| 6.30 to 7.30 | COc1cccc(-c2cnc(N)c(C(=O)c3cccc(N4CCCNCC4)n3)c2)c1 [compound 181] |
| 6.30 to 7.30 | C=Cc1cnc(N)c(C(=O)c2cccc(N3CCCN(C)CC3)n2)c1 [compound 152] |
| 6.30 to 7.30 | C=Cc1cnc(N)c(C(=O)c2cccc(N3CCN[C@@H](CC(C)C)C3)n2)c1 [compound 233] |
| 6.30 to 7.30 | Nc1ncc(-c2cc[nH]c2)cc1C(=O)c1cccc(N2CCCNCC2)n1 [compound 199] |
| 6.30 to 7.30 | Nc1ncc(Br)cc1C(=O)c1cccc(N2CCCN(CCO)CC2)n1 [compound 98] |
| 6.30 to 7.30 | Nc1ncccc1C(=O)c1cccc(N2CCNC(c3cccnc3)C2)n1 (centres unmarked) [compound 249] |
| 6.30 to 7.30 | Nc1ncccc1C(=O)c1nc(N2CCNC(c3ccccc3)C2)ccc1Cl (centres unmarked) [compound 321] |
| 6.30 to 7.30 | Nc1ncccc1C(=O)c1nc(N2CCCNCC2)ccc1C(F)(F)F [compound 318] |
| 6.30 to 7.30 | Nc1ncc(-c2ccc(O)cc2)cc1C(=O)c1cccc(N2CCCNCC2)n1 [compound 171] |
| 6.30 to 7.30 | CC#Cc1ccc(N2CCNCC2)nc1C(=O)c1cccnc1N [compound 412] |
| 5.55 to 6.30 | COc1cccc(C2CN(c3cccc(C(=O)c4cccnc4N)n3)CCN2)c1 (centres unmarked) [compound 309] |
| < 5.55 | Nc1ncccc1C(=O)c1cccc(N2CCCN(C(=O)CC3CC3)CC2)n1 [compound 35] |
| 6.30 to 7.30 | Nc1ncc(Cl)cc1C(=O)c1cccc(N2CCCNCC2)n1 [compound 245] |
| 6.30 to 7.30 | Nc1ncc(Br)cc1C(=O)c1ncc(C(=O)NCc2ccccc2)s1 [compound 62] |
| 6.30 to 7.30 | CC(C)[C@@H]1CNCCN1c1cccc(C(=O)c2cccnc2N)n1 [compound 237] |
| 6.30 to 7.30 | Nc1ncc(-c2cccc(O)c2)cc1C(=O)c1cccc(N2CCNC(c3ccccc3)C2)n1 (centres unmarked) [compound 260] |
| 6.30 to 7.30 | Cc1ccc(-c2cnc(N)c(C(=O)c3cccc(N4CCCNCC4)n3)c2)cc1 [compound 59] |
| 6.30 to 7.30 | N#Cc1cccc(-c2cnc(N)c(C(=O)c3cccc(N4CCNC(c5ccccc5)C4)n3)c2)c1 (centres unmarked) [compound 270] |
| 6.30 to 7.30 | Nc1ncc(-c2cccs2)cc1C(=O)c1cccc(N2CCNC(c3ccccc3)C2)n1 (centres unmarked) [compound 263] |

| pKi | Structure (SMILES) |
| --- | --- |
| 5.55 to 6.30 | Nc1ncc(-c2ccccc2)cc1C(=O)c1cccc(N2CCNC(c3ccccc3)C2)n1 (centres unmarked) [compound 262] |
| 6.30 to 7.30 | Nc1ncccc1C(=O)c1cccc(N2CCNC(c3ccc(F)cc3)C2)n1 (centres unmarked) [compound 295] |
| < 5.55 | Nc1ncccc1C(=O)c1cccc(-c2c[nH]c3ccccc23)n1 [compound 294] |
| 6.30 to 7.30 | Nc1ncc(/C=C/c2ccccc2)cc1C(=O)c1cccc(N2CCCNCC2)n1 [compound 167] |
| 6.30 to 7.30 | Nc1ncc(-c2ccsc2)cc1C(=O)c1cccc(N2CCCNCC2)n1 [compound 201] |
| 6.30 to 7.30 | Nc1ncccc1C(=O)c1nc(N2CCCNCC2)ccc1Cl [compound 324] |
| 6.30 to 7.30 | COc1ccc(-c2cnc(N)c(C(=O)c3cccc(N4CCCNCC4)n3)c2)cc1 [compound 186] |
| 5.55 to 6.30 | CC(C)(C)C(=O)N1CCCN(c2cccc(C(=O)c3cccnc3N)n2)CC1 [compound 37] |
| 6.30 to 7.30 | Nc1ncc(C2CC2)cc1C(=O)c1cccc(N2CCCNCC2)n1 [compound 154] |
| 6.30 to 7.30 | CC(C)N1CCN(c2cccc(C(=O)c3cc(Br)cnc3N)n2)CC1 [compound 100] |
| 6.30 to 7.30 | Nc1ncc(-c2cccc(CO)c2)cc1C(=O)c1cccc(N2CCNC(c3ccccc3)C2)n1 (centres unmarked) [compound 283] |
| 6.30 to 7.30 | Cc1cccc(C2CN(c3cccc(C(=O)c4cccnc4N)n3)CCN2)c1 (centres unmarked) [compound 335] |
| 6.30 to 7.30 | CC1(N)CCN(c2cccc(C(=O)c3cccnc3N)n2)CC1 [compound 305] |
| < 5.55 | CN(C)c1cccc(-c2cccc(C(=O)c3cccnc3N)n2)c1 [compound 293] |
| 5.55 to 6.30 | CC(C)C(=O)N1CCCN(c2cccc(C(=O)c3cccnc3N)n2)CC1 [compound 34] |
| 5.55 to 6.30 | Cc1sc(N2CCNC[C@H]2C)nc1C(=O)c1cccnc1N [compound 247] |
| 5.55 to 6.30 | Nc1ncc(-c2cc3ccccc3s2)cc1C(=O)c1cccc(N2CCNC(c3ccccc3)C2)n1 (centres unmarked) [compound 265] |
| 6.30 to 7.30 | Nc1cccc(-c2cnc(N)c(C(=O)c3cccc(N4CCCNCC4)n3)c2)c1 [compound 169] |
| 5.55 to 6.30 | Nc1ncc(Br)cc1C(=O)c1cccc(N2CCCN(C(=O)c3ccccc3Cl)CC2)n1 [compound 151] |
| 5.55 to 6.30 | Nc1ncccc1C(=O)c1cccc(N2CCCN(C(=O)CCC(F)(F)F)CC2)n1 [compound 31] |
| 6.30 to 7.30 | CC(C)C[C@H]1CN(c2cccc(C(=O)c3cc(Br)cnc3N)n2)CCN1 [compound 232] |
| 6.30 to 7.30 | Nc1ncc(/C=C/c2ccccc2)cc1C(=O)c1cccc(N2CCNC(c3ccccc3)C2)n1 (centres unmarked) [compound 290] |
| 6.30 to 7.30 | Nc1ncc(Br)cc1C(=O)c1cccc(N2CCCN(C(=O)c3ccccc3C(F)(F)F)CC2)n1 [compound 150] |
| 6.30 to 7.30 | Nc1ncc(Br)cc1C(=O)c1cncc(N2CCCNCC2)n1 [compound 149] |
| 6.30 to 7.30 | Nc1ncccc1C(=O)c1nc(N2CCNC(c3ccccc3)C2)ccc1C(F)(F)F (centres unmarked) [compound 317] |
| 6.30 to 7.30 | N#Cc1ccc(-c2cnc(N)c(C(=O)c3cccc(N4CCNC(c5ccccc5)C4)n3)c2)cc1 (centres unmarked) [compound 271] |

| Structure (SMILES) | pKi |
| --- | --- |
| Nc1ncccc1C(=O)c1nc(N2CCNCC2)ccc1Cl [compound 315] | 6.30 to 7.30 |
| Nc1ncc(Br)cc1C(=O)c1nc(N2CCNCC2)ccc1Cl [compound 329] | 6.30 to 7.30 |
